Reference: patent US6372919B1 (DOV Pharmaceutical, Inc., priority 2001, dated 2002)

Key:
[1] = target: T1, serotonin transporter binding site, rat forebrain membranes (Rattus norvegicus, UniProt P31652); assay: Serotonin Transporter Binding Assay ([3H]-citalopram); conditions: comparison of Table 2 Ki values
T1 construct: The receptor source was rat forebrain membranes; from tissue; host or cells: rat forebrain membranes
Description: Reactions were carried out in 50 mM TRIS-HCl (pH 7.4) containing 120 mM NaCl and 5 mM KCl at 25° C. for 60 minutes. The reaction was terminated by rapid vacuum filtration onto glass fiber filters. Radioactivity trapped in the filters was determined using liquid scintillation spectrometry and compared to control values in order to ascertain any interactions of test compound with the serotonin transporter binding site.

[2] = target: norepinephrine uptake site (norepinephrine transporter), rat forebrain membranes (Rattus norvegicus, UniProt Q9WTR4); conditions: comparison of Table 1 Ki values
norepinephrine uptake site (norepinephrine transporter), rat forebrain membranes, sequence (Q9WTR4 1-597): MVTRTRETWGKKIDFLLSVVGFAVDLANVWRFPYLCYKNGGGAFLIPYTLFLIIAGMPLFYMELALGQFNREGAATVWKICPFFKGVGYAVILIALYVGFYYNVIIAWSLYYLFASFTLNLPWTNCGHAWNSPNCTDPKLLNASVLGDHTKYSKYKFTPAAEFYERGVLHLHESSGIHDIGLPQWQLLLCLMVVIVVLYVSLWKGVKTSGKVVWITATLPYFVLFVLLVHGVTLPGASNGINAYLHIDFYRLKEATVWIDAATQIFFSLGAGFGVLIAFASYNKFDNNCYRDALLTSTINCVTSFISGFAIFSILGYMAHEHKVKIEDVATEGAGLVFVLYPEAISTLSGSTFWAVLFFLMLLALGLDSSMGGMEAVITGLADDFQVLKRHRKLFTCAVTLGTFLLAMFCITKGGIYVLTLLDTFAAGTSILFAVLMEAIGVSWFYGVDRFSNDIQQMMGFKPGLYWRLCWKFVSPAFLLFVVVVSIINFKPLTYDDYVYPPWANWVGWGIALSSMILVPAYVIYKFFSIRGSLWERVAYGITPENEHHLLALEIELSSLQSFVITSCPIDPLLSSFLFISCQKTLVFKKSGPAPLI
Description: Reactions were carried out in 50 mM TRIS-HCl (pH 7.4), containing 300 mM NaCl and 5 mM KCl at 0° C. to 4 ° C for 4 hours. The reaction was terminated by rapid vacuum filtration onto glass fiber filters. Radioactivity trapped in the filters was determined and compared to control values in order to ascertain the interactions of the test compound with the norepinephrine uptake site.

T1 sequence (P31652 whole entry): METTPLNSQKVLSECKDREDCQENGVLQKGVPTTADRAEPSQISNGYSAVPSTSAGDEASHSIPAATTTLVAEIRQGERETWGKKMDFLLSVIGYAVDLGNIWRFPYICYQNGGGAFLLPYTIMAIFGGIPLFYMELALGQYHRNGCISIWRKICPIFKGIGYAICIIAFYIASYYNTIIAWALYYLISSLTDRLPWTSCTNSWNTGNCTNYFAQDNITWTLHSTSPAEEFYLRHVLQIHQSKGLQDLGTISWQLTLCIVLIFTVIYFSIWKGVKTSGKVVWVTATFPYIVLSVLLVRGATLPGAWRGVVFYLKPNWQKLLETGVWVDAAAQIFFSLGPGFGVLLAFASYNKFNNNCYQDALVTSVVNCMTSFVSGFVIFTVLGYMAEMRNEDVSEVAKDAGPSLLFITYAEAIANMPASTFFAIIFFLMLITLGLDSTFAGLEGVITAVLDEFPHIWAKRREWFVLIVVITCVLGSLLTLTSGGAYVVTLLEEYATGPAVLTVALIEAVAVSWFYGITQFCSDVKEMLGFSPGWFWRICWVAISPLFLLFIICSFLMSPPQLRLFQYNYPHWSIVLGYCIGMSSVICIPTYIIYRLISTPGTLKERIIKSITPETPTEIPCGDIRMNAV

With Cl.Clc1ccc([C@@]23CNC[C@@H]2C3)cc1Cl (single isomer, unassigned) [(+)-1-(3,4-dichlorophenyl)-3-azabicyclo[3.1.0]hexane hydrochloride] the “affinity for the serotonin uptake site compared with (±)-1-(3,4-dichlorophenyl)-3-azabicyclo[3.1.0]hexane HCl” value [1] was “significantly greater affinity” and the “affinity for the norepinephrine uptake site compared with (±)-1-(3,4-dichlorophenyl)-3-azabicyclo[3.1.0]hexane HCl” value [2] was “significantly greater affinity”.
